ChEMBL document CHEMBL4765365, “Design, synthesis and antitumour evaluation of pyrrolo[1,2-f]-phenanthridine and dibenzo[f,h]pyrrolo[1,2-b]isoquinoline derivatives” (Eur J Med Chem, 2020)

Tests used:
NCI-H1650 = experiment: Cytotoxicity against human NCI-H1650 cells assessed as reduction in cell viability incubated for 72 hrs by XTT assay; format: functional, cell-based; details: NCI-H1650, 72 h
NCI-H460 [1] = experiment: Cytotoxicity against human NCI-H460 cells assessed as reduction in cell viability incubated for 72 hrs by XTT assay; format: functional, cell-based; details: NCI-H460, 72 h
HCT-116 [2] = experiment: Induction of cell cycle arrest in human HCT-116 cells assessed as S phase at 0.375 uM incubated for 12 hrs by PI staining based flow cytometry analysis (reference value: 15.5 +/- 0.2 %); format: functional
HCT-116 [3] = experiment: Induction of cell cycle arrest in human HCT-116 cells assessed as G2/M phase at 0.375 uM incubated for 12 hrs by PI staining based flow cytometry analysis (reference value: 21.7 +/- 1.9 %); format: functional
HCT-116 [4] = experiment: Induction of cell cycle arrest in human HCT-116 cells assessed as G2/M phase at 0.375 uM incubated for 24 hrs by PI staining based flow cytometry analysis (reference value: 9.3 +/- 0.8 %); format: functional
HCT-116 [5] = experiment: Induction of cell cycle arrest in human HCT-116 cells assessed as G1 phase at 0.75 uM incubated for 12 hrs by PI staining based flow cytometry analysis (reference value: 53.6 +/- 4.5 %); format: functional
HCT-116 [6] = experiment: Induction of cell cycle arrest in human HCT-116 cells assessed as G1 phase at 0.75 uM incubated for 24 hrs by PI staining based flow cytometry analysis (reference value: 55 +/- 9.8 %); format: functional
HCT-116 [7] = experiment: Induction of cell cycle arrest in human HCT-116 cells assessed as S phase at 0.75 uM incubated for 36 hrs by PI staining based flow cytometry analysis (reference value: 7.9 +/- 3.7 %); format: functional
HCT-116 [8] = experiment: Induction of cell cycle arrest in human HCT-116 cells assessed as G1 phase at 1.5 uM measured at 0 hrs by PI staining based flow cytometry analysis (reference value: 52 +/- 5.1 %); format: functional
HCT-116 [9] = experiment: Induction of cell cycle arrest in human HCT-116 cells assessed as S phase at 1.5 uM measured at 0 hrs by PI staining based flow cytometry analysis (reference value: 12.4 +/- 6.2 %); format: functional
HCT-116 [10] = experiment: Induction of cell cycle arrest in human HCT-116 cells assessed as G2/M phase at 1.5 uM measured at 0 hrs by PI staining based flow cytometry analysis (reference value: 28.9 +/- 1.4 %); format: functional
HCT-116 [11] = experiment: Induction of cell cycle arrest in human HCT-116 cells assessed as S phase at 1.5 uM incubated for 12 hrs by PI staining based flow cytometry analysis (reference value: 15.5 +/- 0.2 %); format: functional
HCT-116 [12] = experiment: Induction of cell cycle arrest in human HCT-116 cells assessed as G2/M phase at 1.5 uM incubated for 12 hrs by PI staining based flow cytometry analysis (reference value: 21.7 +/- 1.9 %); format: functional
HCT-116 [13] = experiment: Induction of cell cycle arrest in human HCT-116 cells assessed as G0 phase at 1.5 uM incubated for 24 hrs by PI staining based flow cytometry analysis (reference value: 12.5 +/- 5.4 %); format: functional
NCI-H460 [14] = experiment: Induction of cell cycle arrest in human NCI-H460 cells assessed as S phase at 1.5 uM measured at 0 hrs by PI staining based flow cytometry analysis (reference value: 12.2 +/- 2.8 %); format: functional
NCI-H460 [15] = experiment: Induction of cell cycle arrest in human NCI-H460 cells assessed as G0 phase at 1.5 uM incubated for 24 hrs by PI staining based flow cytometry analysis (reference value: 1.6 +/- 0.6 %); format: functional
NCI-H460 [16] = experiment: Induction of cell cycle arrest in human NCI-H460 cells assessed as S phase at 3 uM measured at 0 hrs by PI staining based flow cytometry analysis (reference value: 12.2 +/- 2.8 %); format: functional
NCI-H460 [17] = experiment: Induction of cell cycle arrest in human NCI-H460 cells assessed as S phase at 3 uM incubated for 12 hrs by PI staining based flow cytometry analysis (reference value: 11.2 +/- 4.3 %); format: functional
NCI-H460 [18] = experiment: Induction of cell cycle arrest in human NCI-H460 cells assessed as G1 phase at 3 uM incubated for 36 hrs by PI staining based flow cytometry analysis (reference value: 57.9 +/- 3.6 %); format: functional
NCI-H460 [19] = experiment: Induction of apoptosis in human NCI-H460 cells assessed as early apoptotic cells at 1.5 uM incubated for 48 hrs by annexin V-FITC and PI staining based flow cytometry analysis (reference value: 2 %); format: functional
NCI-H460 [20] = experiment: Induction of apoptosis in human NCI-H460 cells assessed as necrotic cells at 1.5 uM incubated for 48 hrs by annexin V-FITC and PI staining based flow cytometry analysis (reference value: 0.7 %); format: functional
NCI-H460 [21] = experiment: Induction of apoptosis in human NCI-H460 cells assessed as viable cells at 3 uM incubated for 48 hrs by annexin V-FITC and PI staining based flow cytometry analysis (reference value: 90.1 %); format: functional; details: read-out: Activity
NCI-H460 [22] = experiment: Induction of apoptosis in human NCI-H460 cells assessed as early apoptotic cells at 3 uM incubated for 48 hrs by annexin V-FITC and PI staining based flow cytometry analysis (reference value: 2 %); format: functional
NCI-H460 [23] = experiment: Induction of apoptosis in human NCI-H460 cells assessed as late apoptotic cells at 3 uM incubated for 48 hrs by annexin V-FITC and PI staining based flow cytometry analysis (reference value: 7.3 %); format: functional
NCI-H460 [24] = experiment: Induction of apoptosis in human NCI-H460 cells assessed as viable cells at 6 uM incubated for 48 hrs by annexin V-FITC and PI staining based flow cytometry analysis (reference value: 90.1 %); format: functional; details: read-out: Activity

`OCc1cn2c3ccccc3c3ccccc3c2c1CO` showed an IC50 (NCI-H1650) of 3.73 µM, an IC50 (NCI-H460 [1]) of 3.14 µM and an Activity (HCT-116 [2]) of 16.9%. For the same compound, the Activity (HCT-116 [3]) was 23.2%, the Activity (HCT-116 [4]) was 17.8% and the Activity (HCT-116 [5]) was 51.6%. It also gave an Activity (HCT-116 [6]) of 57.4%, an Activity (HCT-116 [7]) of 5.1% and an Activity (HCT-116 [8]) of 53.6%. The Activity (HCT-116 [9]) was 12.6%, the Activity (HCT-116 [10]) was 28.5% and the Activity (HCT-116 [11]) was 19.9%. For the same compound, the Activity (HCT-116 [12]) was 24%, the Activity (HCT-116 [13]) was 6.4% and the Activity (NCI-H460 [14]) was 12%. For the same compound, the Activity (NCI-H460 [15]) was 2.8%, the Activity (NCI-H460 [16]) was 12.2% and the Activity (NCI-H460 [17]) was 17.3%. The Activity (NCI-H460 [18]) was 51.8%, the Activity (NCI-H460 [19]) was 3.6% and the Activity (NCI-H460 [20]) was 0.5%. The viability at 3 µM (NCI-H460 [21]) was 36.2%, the Activity (NCI-H460 [22]) was 10.8% and the Activity (NCI-H460 [23]) was 51.4%. The viability at 6 µM (NCI-H460 [24]) was 13.4%.
